Series [1] concerns MDA-MB-231 xenograft tumors. In words: Xenograft tumor study with drug refilling. It is filed as in vivo, J:Nu mice. Conditions: 120 μg doxorubicin per animal IV (FIG. 5C). Here is the method:
All animal experiments were performed according to established animal protocols. Tumors were created by injecting 10^6 MDA-MB-231 cells (American Type Culture Collection, VA) combined with Matrigel (BD Biosciences, CA) to a total volume of 200 μL (100 μL PBS and 100 μL Matrigel) into the hind limbs of 8 week old J:Nu (Foxn1^nu/Foxn1^nu) mice (Jackson Labs, ME). 35 days following tumor inoculation tumors were injected with alginate gels. 20 mg/mL alginate conjugated to DNA (thioT-SH or unconjugated) was mixed with doxorubicin (1.6 mg drug per mL of gel), then crosslinked with 4% wt/v CaSO4 (1.22 M) and then 50 μL of gel were injected into tumors with a 23-gauge needle. 2, 3, 4, and 5 weeks after initial tumoral gel injection, mice were injected retro-orbitally with 100 μL 0.5% DNA-conjugated alginate carrying doxorubicin (5% oxidized alginate, thioA-SH, Dye-750, 160 μg Dox-hydrazide=120 μg Dox). Throughout the study, tumor area was measured twice per week with digital calipers in two dimensions and the product of the two dimensional values was used to approximate tumor area. […]
The breast cancer MDA-MB-231 model was chosen because it is a slow-growing tumor, widely used to test chemotherapeutic strategies. […] The ability of targeted therapy to reduce tumor size was assessed by monitoring the change in tumor size in the three days following each IV administration. […]

The test system of series [2] is DNA-conjugated calcium-alginate gels. Put plainly: In vitro binding of fluorescent oligonucleotides to DNA-conjugated calcium alginate gels (FIG. 2). The note with it: alginate-(T)20 calcium gel; phosphate buffer with 1 mM calcium chloride.

For the compound `COc1cccc2c1C(=O)c1c(O)c3c(c(O)c1C2=O)C[C@@](O)(C(=O)CO)C[C@@H]3O[C@H]1C[C@H](N)[C@H](O)[C@H](C)O1` [doxorubicin], in series [1], the “change in tumor size in the three days following each IV administration” value is given as “continued to grow”.
For the compound AAAAAAAAAAAAAAAAAAAA-FAM [(A)20], the “binding of fluorescently-labeled oligonucleotides to gel surface” value in series [2] is listed as “bound to the gel surface in a sequence-specific manner”.
Same read-out and setting: the value for TTTTTTTTTTTTTTTTTTTT-FAM [(T)20] was “little binding”.

The record behind these values is patent US20200197526A1, “REFILLABLE DRUG DELIVERY DEVICES AND METHODS OF USE THEREOF” (President and Fellows of Harvard College, priority 2014, published 2020).
